Measured values published in patent publication US20020022722A1, “4'-C-ethynyl pyrimidine nucleoside compounds” (priority 1999, published 2002).
Values after ≈ are worked out from the molar mass of the structure shown. Read-outs that look alike come from different tables or passages of the source.

Key:
multi-PI resistant HIV-1 = details: result in words; cited from earlier work
HIV strain 104pre = experiment: MAGI assay using HeLa CD4/LTR-beta-Gal cells, 104pre; format: cell-based
Method: (§1) 2) MAGI Assay Using HeLa CD4/LTR-beta-Gal Cells
(§2) 1. HeLa CD4/LTR-beta-Gal cells are added to 96 wells such that the number of cells in each well is 10,000. After 12-24 hours, the culture medium is removed, and a diluted test agent (100 μl) is added.
(§3) 2. A variety of HIV strains (wild strain: WT, drug-resistant strain: MDR, M184V, NL4-3, 104pre, and C; each equivalent to 50 TCID50) are added, and the cells are further cultured for 48 hours.
(§4) 3. The cells are fixed for five minutes using PBS containing 1% formaldehyde and 0.2% glutaraldehyde.
(§5) 4. After the fixed cells are washed with PBS three times, the cells are stained with 0.4 mg/ml X-Gal for one hour, and the number of blue-stained cells of each well is counted under a transmission stereoscopic microscope. The test agent concentration at which blue-stained cells decrease to 50% and 90% in number represents EC50 and EC90, respectively.

HIV strain NL4-3 = experiment: MAGI assay using HeLa CD4/LTR-beta-Gal cells, NL4-3; format: cell-based
Method: as §1, §2, §3, §4, §5

[1] = Cytotoxicity, MTT method using non-infected MT-4 cells; format: cell-based; details: human
Method: (§6) 1) MTT Method Using MT-4 Cells
(§7) 1. A test agent (100 μl) is diluted on a 96-well microplate. MT-4 cells infected with HIV-1 (IIIb strain; 100 TCID50) and non-infected MT-4 cells are added to the microplate such that the number of cells in each well becomes 10,000. The cells are cultured at 37° C. for five days.
(§8) 2. MTT (20 μl, 7.5 mg/ml) is added to each well, and the cells are further cultured for 2-3 hours.
(§9) 3. The cultured medium (120 μl) is sampled, and MTT terminating solution (isopropanol containing 4% Triton X-100 and 0.04N HCl) is added to the sample. The mixture is stirred to form formazane, which is dissolved. The absorbance at 540 nm of the solution is measured. Since the absorbance is proportional to the number of viable cells, the test agent concentration at which a half value of the absorbance is measured in a test using infected MT-4 cells represents EC50, whereas the test agent concentration at which a half value of the absorbance is measured in a test using non-infected MT-4 cells represents CC50.

HIV strain C = experiment: MAGI assay using HeLa CD4/LTR-beta-Gal cells, C; format: cell-based; details: Human immunodeficiency virus 1, HeLa; for EC90: read-out: HIV C (EC90, μM); for EC50: read-out: HIV C EC50, μM
Method: as §1, §2, §3, §4, §5

HIV-1 (IIIb strain) = experiment: Anti-HIV activity, MTT method using MT-4 cells; format: cell-based; details: Human immunodeficiency virus 1, IIIB
Method: (2) Anti-human Immunodeficiency Virus (HIV) Activity
as §6, §7, §8, §9

HIV wild strain: WT = experiment: MAGI assay using HeLa CD4/LTR-beta-Gal cells, WT; format: cell-based
Method: as §1, §2, §3, §4, §5

[2] = system: HIV drug-resistant strain: M184V; experiment: MAGI assay using HeLa CD4/LTR-beta-Gal cells, M184V; format: cell-based; details: Human immunodeficiency virus 1, HeLa
Method: as §1, §2, §3, §4, §5

[3] = Cytotoxicity by use of HeLa CD4/LTR-beta-Gal cells; format: cell-based; details: human
Method: (§10) 5. In a manner similar to that employed in the MTT method, cytotoxicity is measured by use of HeLa CD4/LTR-beta-Gal cells.

[4] = system: HIV drug-resistant strain: MDR; experiment: MAGI assay using HeLa CD4/LTR-beta-Gal cells, MDR; format: cell-based; details: Human immunodeficiency virus 1, HeLa
Method: as §1, §2, §3, §4, §5

[5] = result in words; cited from earlier work
[6] = system: HeLa CD4/LTR-beta-Gal cells; experiment: Cytotoxicity by use of HeLa CD4/LTR-beta-Gal cells; format: cell-based; details: Table 6
Method: as §10

HIV-1 IIIb strain = details: MT-4 cells, result in words; cited from earlier work
[7] = MT4, Table 4, read-out: HIV-1 (EC50)
[8] = Human immunodeficiency virus 1, HeLa, read-out: HIV WT (EC50, μg/ml), Table 6
[9] = read-out: HIV M184V (EC50, μg/ml), Table 6
[10] = Table 6, read-out: Cytotoxicity (CC50, μg/ml)
[11] = read-out: HIV MDR (EC50, μg/ml), Table 6
[12] = non-infected MT-4 cells, Table 3, read-out: Cytotoxicity (CC50, μg/ml)
[13] = MT4, Table 3, read-out: HIV-1 (EC50, μg/ml)
[14] = MT4, read-out: HIV-1 (EC50, μg/ml), Table 3
[15] = Human immunodeficiency virus 1, HeLa, read-out: HIV WT (EC50, μg/ml), Table 5
[16] = read-out: HIV M184V (EC50, μg/ml), Table 5
[17] = Table 5, read-out: Cytotoxicity (CC50, μg/ml)
[18] = read-out: HIV MDR (EC50, μg/ml), Table 5
[19] = MT4, read-out: HIV-1 (EC50, μg/ml), Table 2
[20] = MT4, Table 2, read-out: HIV-1 (EC50, μg/ml)
[21] = non-infected MT-4 cells, Table 2, read-out: Cytotoxicity (CC50, μg/ml)

SMILES: Cc1ccccc1CNC(=O)[C@H]1N(C(=O)[C@@H](O)[C@H](Cc2ccccc2)NC(=O)c2cccc(O)c2C)CSC1(C)C [JE-2147]
- antiviral activity against a multi-PI resistant HIV-1 (multi-PI resistant HIV-1): potent antiviral activity

SMILES: C#C[C@]1(CO)O[C@@H](n2cc(F)c(N)nc2=O)C[C@@H]1O [Compound 37, 4′-C-ethynyl-2′-deoxy-5-fluorocytidine]
- EC90 (HIV strain 104pre; Human immunodeficiency virus 1, HeLa, read-out: HIV 104 pre (EC90, μM)): 0.19 µM
- EC50 (HIV strain 104pre; Human immunodeficiency virus 1, HeLa, read-out: HIV 104 pre EC50, μM): 0.022 µM
- EC90 (HIV strain NL4-3; Human immunodeficiency virus 1, NL43, HeLa, read-out: HIV NL-43 (EC90, μM)): 0.25 µM
- EC50 (HIV strain NL4-3; Human immunodeficiency virus 1, NL43, HeLa, read-out: HIV NL-43 EC50, μM): 0.021 µM
- CC50 at 5 days ([1]; non-infected MT-4 cells, Table 4, read-out: Cytotoxicity (CC50)): > 500000 nM
- EC90 (HIV strain C): 3.44 µM
- EC50 (HIV strain C): 0.122 µM
- EC50 (HIV-1 (IIIb strain); [7]): 33 nM

SMILES: C#C[C@]1(CO)O[C@@H](n2cnc3c(=O)[nH]cnc32)CC1O (stereo partly drawn) [Compound 29, 9-(2-deoxy-4-C-ethynyl-β-D-ribo-pentofuranosyl)hypoxanthine]
- EC50 (HIV wild strain: WT; [8]): 0.22 µg/mL (≈ 0.796 µM)
- EC50 [2, 9]: 4.6 µg/mL (≈ 16.7 µM)
- CC50 [3, 10]: > 100 µg/mL
- EC50 [4, 11]: 0.14 µg/mL (≈ 0.507 µM)
- CC50 at 5 days [1, 12]: 38 µg/mL
- EC50 (HIV-1 (IIIb strain); [13]): 0.037 µg/mL

SMILES: C#C[C@]1(CO)O[C@@H](n2cnc3c(=O)[nH]c(N)nc32)CC1O (stereo partly drawn) [Compound 30, 9-(2-deoxy4-C-ethynyl-β-D-ribo-pentofuranosyl)guanine]
- EC50 (HIV wild strain: WT; [8]): 0.002 µg/mL (≈ 0.00687 µM)
- EC50 [2, 9]: 0.0023 µg/mL (≈ 0.0079 µM)
- CC50 [3, 10]: 15.2 µg/mL (≈ 52.2 µM)
- EC50 [4, 11]: 0.0014 µg/mL (≈ 0.00481 µM)
- CC50 at 5 days [1, 12]: 0.41 µg/mL
- EC50 (HIV-1 (IIIb strain); [14]): 0.00044 µg/mL

SMILES: C#C[C@]1(CO)O[C@@H](n2cc(C)c(=O)[nH]c2=O)[C@H](O)[C@@H]1O [1-(4-C-ethynyl-β-D-ribo-pentofuranosyl)thymine]
- biological activities such as antiviral and antitumor activities [5]: no such biological activities have been observed

SMILES: C#C[C@]1(CO)O[C@@H](n2cnc3c(N)nc(N)nc32)CC1O (stereo partly drawn) [Compound 28, 9-(2-deoxy-4-C-ethynyl-β-D-ribo-pentofuranosyl)-2,6-diaminopurine]
- EC50 (HIV wild strain: WT; [8]): 0.00028 µg/mL (≈ 0.000965 µM)
- EC50 [2, 9]: 0.0017 µg/mL (≈ 0.00586 µM)
- CC50 [3, 10]: 2.7 µg/mL (≈ 9.3 µM)
- EC50 [4, 11]: 0.00029 µg/mL (≈ 0.000999 µM)
- CC50 at 5 days [1, 12]: 0.26 µg/mL
- EC50 (HIV-1 (IIIb strain); [14]): 0.0001 µg/mL

SMILES: Cc1cn([C@H]2C[C@H](N=[N+]=[N-])[C@@H](CO)O2)c(=O)[nH]c1=O [AZT, zidovudine, reference compound]
- EC50 (HIV wild strain: WT; [15]): 0.0059 µg/mL (≈ 0.0221 µM)
- EC50 (HIV wild strain: WT; [8]): 0.0027 µg/mL (≈ 0.0101 µM)
- EC90 (HIV strain 104pre; Human immunodeficiency virus 1, Table 7, value in parentheses, HeLa CD4/LTR-beta-Gal cells, read-out: HIV 104 pre (EC90)): 9.66 µM
- EC50 (HIV strain 104pre; Human immunodeficiency virus 1, Table 7, HeLa CD4/LTR-beta-Gal cells, read-out: HIV 104 pre EC50): 0.059 µM
- EC90 (HIV strain NL4-3; Human immunodeficiency virus 1, NL43, Table 7, value in parentheses, HeLa CD4/LTR-beta-Gal cells, read-out: HIV NL-43 (EC90)): 4.96 µM
- EC50 (HIV strain NL4-3; Human immunodeficiency virus 1, NL43, Table 7, HeLa CD4/LTR-beta-Gal cells, read-out: HIV NL-43 EC50): 0.109 µM
- EC50 [2, 16]: 0.0083 µg/mL (≈ 0.0311 µM)
- EC50 [2, 9]: 0.0013 µg/mL (≈ 0.00486 µM)
- Cytotoxicity (CC50, μg/ml) [6]: >26.7 µg/mL
- CC50 [3, 17]: > 26.7 µg/mL
- EC50 [4, 18]: 4.1 µg/mL (≈ 15.3 µM)
- EC50 [4, 11]: 5.34 µg/mL (≈ 20 µM)
- CC50 at 5 days ([1]; Table 2, read-out: Cytotoxicity (CC50, μg/ml)): > 0.27 µg/mL
- CC50 at 5 days ([1]; Table 3, read-out: Cytotoxicity (CC50, μg/ml)): 9.08 µg/mL
- EC90 (HIV strain C): > 10 µM
- EC50 (HIV strain C): 3.27 µM
- EC50 (HIV-1 (IIIb strain); [7]): 55 nM
- EC50 (HIV-1 (IIIb strain); [19]): 0.0016 µg/mL
- EC50 (HIV-1 (IIIb strain); [14]): 0.0011 µg/mL

SMILES: C#C[C@]1(CO)O[C@@H](n2ccc(N)nc2=O)C[C@@H]1O [Compound 13, 4′-C-ethynyl-2′-deoxycytidine]
- EC50 (HIV wild strain: WT; Human immunodeficiency virus 1, Table 5, read-out: HIV WT (EC50, μg/ml)): 0.00031 µg/mL (≈ 0.00123 µM)
- EC50 [2, 16]: 0.00054 µg/mL (≈ 0.00215 µM)
- EC50 [4, 18]: 0.0003 µg/mL (≈ 0.00119 µM)
- EC50 (HIV-1 (IIIb strain); [20]): 0.0012 µg/mL

SMILES: C#C[C@]1(CO)O[C@@H](n2ccc(=O)[nH]c2=O)[C@H](O)[C@@H]1O [4′-C-ethynyluridine]
- biological activities such as antiviral and antitumor activities [5]: no such biological activities have been observed

SMILES: C#C[C@]1(CO)O[C@@H](n2cc(C)c(=O)[nH]c2=O)C[C@@H]1O [4′-C-ethynyl thymidine, 4′-C-ethynylthymidine, reference compound]
- EC50 (HIV wild strain: WT; [15]): 0.097 µg/mL (≈ 0.364 µM)
- anti-HIV activity compared with AZT (HIV-1 IIIb strain): weaker than that of AZT
- EC50 [2, 16]: 0.049 µg/mL (≈ 0.184 µM)
- CC50 [3, 17]: > 100 µg/mL
- EC50 [4, 18]: 0.033 µg/mL (≈ 0.124 µM)
- CC50 at 5 days [1, 21]: > 100 µg/mL
- EC50 (HIV-1 (IIIb strain); [20]): 0.22 µg/mL

SMILES: C#C[C@]1(CO)O[C@@H](n2cnc3c(N)ncnc32)CC1O (stereo partly drawn) [Compound 23, 9-(2-deoxy-4-C-ethynyl-β-D-ribo-pentofuranosyl)adenine]
- EC50 (HIV wild strain: WT; [8]): 0.0012 µg/mL (≈ 0.00436 µM)
- EC50 [2, 9]: 0.013 µg/mL (≈ 0.0472 µM)
- CC50 [3, 10]: > 100 µg/mL
- EC50 [4, 11]: 0.0017 µg/mL (≈ 0.00618 µM)
- CC50 at 5 days [1, 12]: 4.4 µg/mL
- EC50 (HIV-1 (IIIb strain); [13]): 0.0027 µg/mL

SMILES: C#C[C@]1(CO)O[C@@H](n2ccc(N)nc2=O)[C@H](O)[C@@H]1O [4′-C-ethynylcytidine]
- biological activities such as antiviral and antitumor activities [5]: no such biological activities have been observed

SMILES: C#C[C@]1(CO)O[C@@H](n2ccc(N)nc2=O)[C@@H](O)[C@@H]1O [Compound 19, 1-(4-C-ethynyl-β-D-arabino-pentofuranosyl)cytosine]
- EC50 (HIV wild strain: WT; [15]): 0.0019 µg/mL (≈ 0.00711 µM)
- EC50 [2, 16]: 0.19 µg/mL (≈ 0.711 µM)
- CC50 [3, 17]: > 100 µg/mL
- EC50 [4, 18]: 0.021 µg/mL (≈ 0.0786 µM)
- CC50 at 5 days [1, 21]: 0.53 µg/mL
- EC50 (HIV-1 (IIIb strain); [19]): 0.0115 µg/mL
